Measured values published in paper PMC7211195 (Investigational New Drugs, 2019).
Values joined by “and” are separate entries in the source; they are usually repeats but may differ in a detail not shown here. Equal entries are not always repeated. Where two headings read alike, the source gives them in different places.

Assay: Lapatinib pharmacokinetics and uptake in rat brain tissue (BT);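 as to BT corr (BT homogenate corrected), single rat: brain concentration corrected for residual brain blood by the Fridén method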;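 as to BT corr (BT homogenate), single rat: brain concentration corrected for residual brain blood by the Fridén method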
Format: in vivo, rats
Protocol: This study was conducted on rats, which are a promising model to predict P-gp-based drug-drug interactions at the human BBB [15]. The animals were allowed to acclimate for one week before the beginning of the experiments. Adult male Wistar-strain rats (weight 470–525 g) were used in the study. The animals were maintained under standard breeding conditions with a 12/12 h light-dark cycle (lights on at 6.00 a.m., lights off at 6.00 p.m.) at constant room temperature (23 ± 2 °C), relative humidity (55 ± 10%) and ad libitum access to food and water. The experimental protocol for this study was reviewed and approved by the Local Ethics Committee. To obtain consistent data, the study was based on the required minimum number of animals and observation time. […] Three rats were used at each time point (n = 3). In total, the research was conducted on 66 animals (n = 33 in the experimental group and n = 33 in the control group).
Elacridar was freshly dissolved in a vehicle at an initial concentration of 20 mg/mL. […] A volume of 80 μL of blood was collected from each rat by cutting off a piece of its tail. The blood samples were collected into heparinized test tubes at the following time points: […], and they were immediately centrifuged at 2880 g for 10 min at 4 °C. The anaesthetized rats (anaesthetized by intramuscular administration of 50 mg/kg ketamine and 10 mg/kg xylazine) were prepared for cisterna magna puncture. The hair over the puncture was removed and the skin was disinfected with alcohol. The animals were placed in a recumbent position with an elevated rear part of the body. The animals’ heads were slightly flexed and immobilized with the operator’s left hand. The space between the occiput rostrally and the atlas (C1) of the spinal column caudally was gently palpated with the left thumb. A 0.7 × 20 G needle with polyethylene tubing (Terumo Poland, Warsaw, Poland) was gently inserted at an approximate angle of 80–90° through the skin with the operator’s right hand into the midsagittal region. The moment that dura mater perforation was perceptible, a small amount of CSF was found in the needle tubing. To sample additional CSF, a 1 mL insulin syringe (Becton Dickinson, Warsaw, Poland) was used to collect 80–120 μL of CSF by very gentle aspiration. Only clear CSF was collected for further analysis. […] The animals’ brains were immediately dissected, washed in 0.9% NaCl and divided along the longitudinal axis. One of the brain hemispheres was again rinsed three times with 5 mL of 0.9% NaCl, weighed and homogenized with 0.9% NaCl (4 mL per 1 g of BT) in an Ultra-Turrax homogenizer (Witko, Łódź, Poland). The homogenate was then centrifuged at 4500 g for 10 min. All samples of the rat BP, CSF, and BT homogenate supernatant were stored at −80 °C until analysis.
The chromatographic analysis was conducted using a 1260 Infinity system (Agilent Technologies, Santa Clara, USA) equipped with a Kinetex® C18 column (50 × 4.6 mm, 2.6 μm, Phenomenex, Torrance, USA), which was maintained at 35 °C. The mobile phase consisted of 0.1% formic acid (v/v) in water with 5 mM ammonium formate (solvent A) and acetonitrile with 10% phase A (v/v, solvent B). The analyte and internal standard (IS, erlotinib) were eluted using a gradient run of 10 min as follows: 95% A at 0–2 min; 95%–5% A at 2–4 min; 5% A at 4–5 min; 5%–95% A at 5–6 min; 95% A at 6–10 min. The flow rate and injection volume were set at 0.7 mL/min and 10 μL, respectively. The needle was washed for 30 s in a mixture of acetonitrile, methanol, isopropanol, water, and formic acid (50:20:15:15:0.25, v/v/v/v/v).

[1] = male, Wistar, rat, brain tissue homogenate, corrected for residual blood, po, 100 mg/kg, lapatinib p.o. 100 mg/kg alone, read-out: BT corr (BT homogenate corrected), S
[2] = male, Wistar, rat, brain tissue homogenate, corrected for residual blood, po, 100 mg/kg, lapatinib p.o. 100 mg/kg alone, read-out: BT corr (BT homogenate corrected), single rat
[3] = male, Wistar, rat, brain tissue homogenate, oral, lapatinib 100 mg/kg + elacridar, read-out: BT corr (BT homogenate), S
[4] = male, Wistar, rat, brain tissue homogenate, oral, lapatinib 100 mg/kg + elacridar, read-out: BT corr (BT homogenate), single rat

CS(=O)(=O)CCNCc1ccc(-c2ccc3ncnc(Nc4ccc(OCc5cccc(F)c5)c(Cl)c4)c3c2)o1 [lapatinib, N-{3-Chloro-4-[(3-fluorobenzyl)oxy]phenyl}-6-[5-({[2-(methylsulfonyl)ethyl]amino}methyl)-2-furyl]-4-quinazolinamine]
BT corr (BT homogenate corrected), single rat (lapatinib p.o. 100 mg/kg alone, 1 h, 100 mg/kg): 62.82 ng/mL | BT corr (BT homogenate corrected), single rat (lapatinib p.o. 100 mg/kg alone, 1 h, listed as Lapatinib, 100 mg/kg): 62.82 ng/mL | BT corr (BT homogenate corrected), single rat (lapatinib p.o. 100 mg/kg alone, 4 h, 100 mg/kg): 135.24 ng/mL | BT corr (BT homogenate corrected), single rat (lapatinib p.o. 100 mg/kg alone, 4 h, listed as Lapatinib, 100 mg/kg): 135.24 ng/mL | BT corr (BT homogenate corrected), single rat (lapatinib p.o. 100 mg/kg alone, 6 h, 100 mg/kg): 116.18 ng/mL and 47.54 ng/mL | BT corr (BT homogenate corrected), single rat (lapatinib p.o. 100 mg/kg alone, 6 h, listed as Lapatinib, 100 mg/kg): 116.18 ng/mL and 47.54 ng/mL | BT corr (BT homogenate corrected), single rat (lapatinib p.o. 100 mg/kg alone, 8 h, 100 mg/kg): 44.94 ng/mL | BT corr (BT homogenate corrected), single rat (lapatinib p.o. 100 mg/kg alone, 8 h, listed as Lapatinib, 100 mg/kg): 44.94 ng/mL | BT corr (BT homogenate corrected), single rat (lapatinib p.o. 100 mg/kg alone, 12 h, 100 mg/kg): 10.91 ng/mL | BT corr (BT homogenate corrected), single rat (lapatinib p.o. 100 mg/kg alone, 12 h, listed as Lapatinib, 100 mg/kg): 10.91 ng/mL | Kp (male, Wistar, rat, brain tissue (homogenate supernatant), po, 100 mg/kg, read-out: Kp (tissue-to-plasma partition coefficient, AUC0-∞-tissue/AUC0-∞-plasma)): 0.036 | concentration at 4 h (male, Wistar, rat, brain tissue homogenate, corrected for residual blood, oral, lapatinib 100 mg/kg + elacridar, 4 h, read-out: BT corr (BT homogenate), single rat): 78.2 ng/mL | concentration at 6 h (male, Wistar, rat, brain tissue homogenate, corrected for residual blood, oral, lapatinib 100 mg/kg + elacridar, 6 h, read-out: BT corr (BT homogenate), single rat): 87.3 ng/mL | concentration at 8 h (male, Wistar, rat, brain tissue homogenate, corrected for residual blood, oral, lapatinib 100 mg/kg + elacridar, 8 h, read-out: BT corr (BT homogenate), single rat): 91.5 ng/mL | concentration at 12 h (male, Wistar, rat, brain tissue homogenate, corrected for residual blood, oral, lapatinib 100 mg/kg + elacridar, 12 h, read-out: BT corr (BT homogenate), single rat): 63.6 ng/mL | concentration at 24 h (male, Wistar, rat, brain tissue homogenate, corrected for residual blood, oral, lapatinib 100 mg/kg + elacridar, 24 h, read-out: BT corr (BT homogenate), single rat): 52.7 ng/mL | concentration at 0.25 h [1]: 27.9 ng/mL | concentration at 0.25 h [2]: 22.5 ng/mL | concentration at 0.5 h [1]: 31.5 ng/mL | concentration at 0.5 h [2]: 24 ng/mL | concentration at 1 h (male, Wistar, rat, brain tissue homogenate, corrected for residual blood, po, 100 mg/kg, lapatinib p.o. 100 mg/kg alone, 1 h, read-out: BT corr (BT homogenate corrected), S): 55.5 ng/mL | concentration at 1 h (male, Wistar, rat, brain tissue homogenate, corrected for residual blood, po, 100 mg/kg, lapatinib p.o. 100 mg/kg alone, 1 h, read-out: BT corr (BT homogenate corrected), single rat): 48.1 ng/mL | concentration at 2 h [1]: 41.4 ng/mL | concentration at 2 h [2]: 30.1 ng/mL | concentration at 3 h [1]: 111 ng/mL | concentration at 3 h [2]: 139 ng/mL | concentration at 4 h (male, Wistar, rat, brain tissue homogenate, corrected for residual blood, po, 100 mg/kg, lapatinib p.o. 100 mg/kg alone, 4 h, read-out: BT corr (BT homogenate corrected), S): 115 ng/mL | concentration at 4 h (male, Wistar, rat, brain tissue homogenate, corrected for residual blood, po, 100 mg/kg, lapatinib p.o. 100 mg/kg alone, 4 h, read-out: BT corr (BT homogenate corrected), single rat): 94.2 ng/mL | concentration at 6 h (male, Wistar, rat, brain tissue homogenate, corrected for residual blood, po, 100 mg/kg, lapatinib p.o. 100 mg/kg alone, 6 h, read-out: BT corr (BT homogenate corrected), S): 81.9 ng/mL | concentration at 8 h (male, Wistar, rat, brain tissue homogenate, corrected for residual blood, po, 100 mg/kg, lapatinib p.o. 100 mg/kg alone, 8 h, read-out: BT corr (BT homogenate corrected), S): 66.2 ng/mL | concentration at 8 h (male, Wistar, rat, brain tissue homogenate, corrected for residual blood, po, 100 mg/kg, lapatinib p.o. 100 mg/kg alone, 8 h, read-out: BT corr (BT homogenate corrected), single rat): 87.5 ng/mL | concentration at 12 h (male, Wistar, rat, brain tissue homogenate, corrected for residual blood, po, 100 mg/kg, lapatinib p.o. 100 mg/kg alone, 12 h, read-out: BT corr (BT homogenate corrected), S): 44.5 ng/mL | concentration at 0.25 h [3]: 33.1 ng/mL | concentration at 0.25 h [4]: 30.7 ng/mL | concentration at 0.5 h [3]: 43.6 ng/mL | concentration at 0.5 h [4]: 45.2 ng/mL | concentration at 1 h (male, Wistar, rat, brain tissue homogenate, oral, lapatinib 100 mg/kg + elacridar, 1 h, read-out: BT corr (BT homogenate), S): 79.1 ng/mL | concentration at 1 h (male, Wistar, rat, brain tissue homogenate, oral, lapatinib 100 mg/kg + elacridar, 1 h, read-out: BT corr (BT homogenate), single rat): 74.9 ng/mL
